Here are results for 1 compound from US20190218214A1, “Inhibition of BMP Signaling Compounds, Compositions and Uses Thereof” (Vanderbilt University, priority 2016, published 2019).

In data set [1] the target is ALK6 (Homo sapiens, UniProt O00238). The data set is described as follows: Selectivity Ki, ALK6. It is filed as biochemical.
For data set [2], the target named is TGFβR2 (Homo sapiens, UniProt P37173). The data set is described as follows: Selectivity Ki, TGFβR2. It is filed as biochemical.
Data set [3] deals with T1, ALK2 (Homo sapiens, UniProt Q04771).
T1 sequence (Q04771 21-509): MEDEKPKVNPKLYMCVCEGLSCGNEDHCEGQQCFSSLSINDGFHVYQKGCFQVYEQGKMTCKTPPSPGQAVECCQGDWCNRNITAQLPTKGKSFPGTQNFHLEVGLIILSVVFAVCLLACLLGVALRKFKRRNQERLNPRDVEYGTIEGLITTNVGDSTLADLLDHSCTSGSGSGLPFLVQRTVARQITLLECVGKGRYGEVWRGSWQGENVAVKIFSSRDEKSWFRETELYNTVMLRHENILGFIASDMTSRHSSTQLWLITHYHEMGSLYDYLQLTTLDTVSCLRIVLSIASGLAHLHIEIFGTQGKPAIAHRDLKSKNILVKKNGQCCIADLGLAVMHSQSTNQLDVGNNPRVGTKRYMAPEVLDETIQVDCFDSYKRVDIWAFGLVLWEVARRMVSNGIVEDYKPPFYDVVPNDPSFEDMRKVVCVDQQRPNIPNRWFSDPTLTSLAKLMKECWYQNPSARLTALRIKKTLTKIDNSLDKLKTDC
The data set is described as follows: Selectivity Ki, ALK2. Format: biochemical.

Data set [4] deals with BMP4. The data set is described as follows: BMP4 biological assay (Table 3). It is filed as cell-based.
A short description of data set [5]: In vitro DMPK intrinsic clearance, mouse. It is filed as in vitro ADME.
The target in data set [6] is ALK3 (Homo sapiens, UniProt P36894). The experiment in a line: Selectivity Ki, ALK3. Format: biochemical.
Data set [7] addresses ALK1 (Homo sapiens, UniProt P37023). The data set is described as follows: Selectivity Ki, ALK1. It is filed as biochemical.
Data set [8] can be described thus: Plasma protein binding, mouse. The following applies: read-out: Plasma protein binding (% Fu) Mouse. Format: in vitro ADME.
The target of data set [9] is KDR (Homo sapiens, UniProt P35968). The data set is described as follows: Selectivity Ki, KDR. It is filed as biochemical.
The nature of data set [10]: In vitro DMPK intrinsic clearance, human. Format: in vitro ADME.
For data set [11], the target named is T2, ALK5 (Homo sapiens, UniProt P36897).
T2 sequence (P36897 34-503): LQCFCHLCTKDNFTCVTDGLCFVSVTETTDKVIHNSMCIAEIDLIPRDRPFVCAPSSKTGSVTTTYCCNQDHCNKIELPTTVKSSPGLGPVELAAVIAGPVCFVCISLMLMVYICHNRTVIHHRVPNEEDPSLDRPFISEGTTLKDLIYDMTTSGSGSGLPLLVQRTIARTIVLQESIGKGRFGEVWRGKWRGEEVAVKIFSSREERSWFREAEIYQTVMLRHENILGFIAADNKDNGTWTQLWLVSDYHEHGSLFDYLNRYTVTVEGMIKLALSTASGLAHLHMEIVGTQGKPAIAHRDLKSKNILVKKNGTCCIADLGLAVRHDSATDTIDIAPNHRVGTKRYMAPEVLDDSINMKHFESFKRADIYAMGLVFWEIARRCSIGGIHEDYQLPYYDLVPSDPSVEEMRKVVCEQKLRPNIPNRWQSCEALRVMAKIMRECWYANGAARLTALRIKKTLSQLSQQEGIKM
The experiment in a line: Selectivity Ki, ALK5. Format: biochemical.

Data set [12] has as its target T3, ALK4 (Homo sapiens, UniProt P36896).
T3 sequence (P36896 24-505): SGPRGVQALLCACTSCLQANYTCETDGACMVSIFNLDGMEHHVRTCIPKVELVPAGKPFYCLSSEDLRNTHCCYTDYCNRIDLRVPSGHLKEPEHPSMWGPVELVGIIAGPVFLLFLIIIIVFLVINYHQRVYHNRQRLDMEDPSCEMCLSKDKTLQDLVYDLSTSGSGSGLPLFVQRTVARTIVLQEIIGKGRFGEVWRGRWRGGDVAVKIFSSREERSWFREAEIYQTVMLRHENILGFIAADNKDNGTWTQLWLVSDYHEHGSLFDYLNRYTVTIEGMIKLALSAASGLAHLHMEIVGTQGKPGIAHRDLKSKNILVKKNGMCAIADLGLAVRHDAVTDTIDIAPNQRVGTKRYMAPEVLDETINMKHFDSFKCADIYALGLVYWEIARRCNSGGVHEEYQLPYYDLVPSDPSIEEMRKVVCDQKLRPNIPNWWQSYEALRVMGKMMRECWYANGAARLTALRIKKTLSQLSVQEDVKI
The experiment in a line: Selectivity Ki, ALK4. It is filed as biochemical.

The nature of data set [13]: Plasma protein binding, human. Format: in vitro ADME. The settings on record: read-out: Plasma protein binding (% Fu) Human.

Some results are limits rather than exact numbers.

Chain of ALK3 (P36894 24-532, species assumed): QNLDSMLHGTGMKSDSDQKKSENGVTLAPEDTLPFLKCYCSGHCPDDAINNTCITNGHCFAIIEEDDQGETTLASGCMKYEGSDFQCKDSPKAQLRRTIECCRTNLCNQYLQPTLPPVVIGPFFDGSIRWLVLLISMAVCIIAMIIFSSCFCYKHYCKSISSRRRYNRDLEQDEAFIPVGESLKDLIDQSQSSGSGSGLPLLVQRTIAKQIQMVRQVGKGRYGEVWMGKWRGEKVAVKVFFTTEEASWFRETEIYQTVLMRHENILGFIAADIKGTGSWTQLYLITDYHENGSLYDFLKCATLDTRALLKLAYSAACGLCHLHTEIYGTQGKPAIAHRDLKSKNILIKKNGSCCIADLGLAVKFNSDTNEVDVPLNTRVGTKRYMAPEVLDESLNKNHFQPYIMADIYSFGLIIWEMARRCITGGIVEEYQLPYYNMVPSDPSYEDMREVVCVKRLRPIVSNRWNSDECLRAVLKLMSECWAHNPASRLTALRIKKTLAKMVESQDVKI
Chain of KDR (P35968 20-1356, species assumed): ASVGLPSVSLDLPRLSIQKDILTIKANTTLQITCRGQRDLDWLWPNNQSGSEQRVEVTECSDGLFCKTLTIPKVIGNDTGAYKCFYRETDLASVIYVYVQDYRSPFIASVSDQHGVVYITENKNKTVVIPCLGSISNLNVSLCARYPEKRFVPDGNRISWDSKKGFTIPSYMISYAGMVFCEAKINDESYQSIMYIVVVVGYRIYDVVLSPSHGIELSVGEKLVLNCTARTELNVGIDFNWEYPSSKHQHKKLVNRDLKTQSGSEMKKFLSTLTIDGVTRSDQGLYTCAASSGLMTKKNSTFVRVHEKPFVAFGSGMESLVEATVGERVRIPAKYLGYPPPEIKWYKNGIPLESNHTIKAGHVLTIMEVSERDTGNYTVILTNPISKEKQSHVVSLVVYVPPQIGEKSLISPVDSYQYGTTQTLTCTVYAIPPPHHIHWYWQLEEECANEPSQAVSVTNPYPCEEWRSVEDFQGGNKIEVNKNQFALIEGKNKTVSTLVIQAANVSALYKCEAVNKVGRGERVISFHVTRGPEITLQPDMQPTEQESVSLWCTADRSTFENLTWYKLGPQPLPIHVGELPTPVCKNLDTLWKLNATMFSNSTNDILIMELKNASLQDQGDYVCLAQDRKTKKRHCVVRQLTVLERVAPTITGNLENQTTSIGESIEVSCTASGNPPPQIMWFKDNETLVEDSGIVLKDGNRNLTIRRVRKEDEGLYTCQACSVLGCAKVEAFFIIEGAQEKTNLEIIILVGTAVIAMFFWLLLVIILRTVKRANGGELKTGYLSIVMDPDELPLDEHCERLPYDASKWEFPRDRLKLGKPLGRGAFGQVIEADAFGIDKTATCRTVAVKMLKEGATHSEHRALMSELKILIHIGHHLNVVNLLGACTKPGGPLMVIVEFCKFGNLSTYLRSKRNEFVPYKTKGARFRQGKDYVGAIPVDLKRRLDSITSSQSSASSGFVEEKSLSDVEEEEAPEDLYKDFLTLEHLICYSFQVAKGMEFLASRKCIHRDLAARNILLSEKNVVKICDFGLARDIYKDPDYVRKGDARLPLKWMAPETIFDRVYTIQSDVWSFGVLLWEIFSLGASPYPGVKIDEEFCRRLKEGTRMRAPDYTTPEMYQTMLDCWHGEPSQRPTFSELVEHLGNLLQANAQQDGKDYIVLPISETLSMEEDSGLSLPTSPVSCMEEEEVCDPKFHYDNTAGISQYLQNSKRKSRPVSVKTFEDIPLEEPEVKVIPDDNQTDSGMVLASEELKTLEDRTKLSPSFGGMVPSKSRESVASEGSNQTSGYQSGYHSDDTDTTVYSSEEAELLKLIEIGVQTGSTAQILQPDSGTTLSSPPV
Chain of ALK6 (O00238 14-502): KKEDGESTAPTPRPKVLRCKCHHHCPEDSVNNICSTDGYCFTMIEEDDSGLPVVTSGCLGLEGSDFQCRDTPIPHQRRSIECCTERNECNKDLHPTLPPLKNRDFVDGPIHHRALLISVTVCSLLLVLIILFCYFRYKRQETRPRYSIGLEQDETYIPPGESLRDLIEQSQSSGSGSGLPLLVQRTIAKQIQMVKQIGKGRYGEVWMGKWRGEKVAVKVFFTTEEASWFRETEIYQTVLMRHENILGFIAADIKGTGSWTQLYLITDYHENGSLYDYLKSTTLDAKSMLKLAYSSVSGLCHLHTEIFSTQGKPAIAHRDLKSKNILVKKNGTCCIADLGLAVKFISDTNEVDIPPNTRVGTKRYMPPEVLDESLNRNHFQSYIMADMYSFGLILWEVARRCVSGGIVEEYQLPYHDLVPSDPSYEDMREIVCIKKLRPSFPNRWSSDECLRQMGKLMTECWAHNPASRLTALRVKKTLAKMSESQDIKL
Chain of ALK1 (P37023 22-503, species assumed): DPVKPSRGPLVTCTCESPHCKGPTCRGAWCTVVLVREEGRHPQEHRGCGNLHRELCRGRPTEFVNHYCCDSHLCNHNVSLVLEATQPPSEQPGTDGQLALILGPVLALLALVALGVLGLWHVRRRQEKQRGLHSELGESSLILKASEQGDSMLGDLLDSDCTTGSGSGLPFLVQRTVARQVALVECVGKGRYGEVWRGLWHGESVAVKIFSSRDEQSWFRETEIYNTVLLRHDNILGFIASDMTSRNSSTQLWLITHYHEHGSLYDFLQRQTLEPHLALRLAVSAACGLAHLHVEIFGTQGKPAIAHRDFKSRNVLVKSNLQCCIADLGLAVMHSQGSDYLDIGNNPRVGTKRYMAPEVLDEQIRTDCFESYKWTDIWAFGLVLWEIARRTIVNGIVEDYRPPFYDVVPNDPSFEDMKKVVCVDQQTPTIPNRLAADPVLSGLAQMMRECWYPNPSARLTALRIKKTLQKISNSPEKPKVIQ
Chain of TGFβR2 (P37173 23-567): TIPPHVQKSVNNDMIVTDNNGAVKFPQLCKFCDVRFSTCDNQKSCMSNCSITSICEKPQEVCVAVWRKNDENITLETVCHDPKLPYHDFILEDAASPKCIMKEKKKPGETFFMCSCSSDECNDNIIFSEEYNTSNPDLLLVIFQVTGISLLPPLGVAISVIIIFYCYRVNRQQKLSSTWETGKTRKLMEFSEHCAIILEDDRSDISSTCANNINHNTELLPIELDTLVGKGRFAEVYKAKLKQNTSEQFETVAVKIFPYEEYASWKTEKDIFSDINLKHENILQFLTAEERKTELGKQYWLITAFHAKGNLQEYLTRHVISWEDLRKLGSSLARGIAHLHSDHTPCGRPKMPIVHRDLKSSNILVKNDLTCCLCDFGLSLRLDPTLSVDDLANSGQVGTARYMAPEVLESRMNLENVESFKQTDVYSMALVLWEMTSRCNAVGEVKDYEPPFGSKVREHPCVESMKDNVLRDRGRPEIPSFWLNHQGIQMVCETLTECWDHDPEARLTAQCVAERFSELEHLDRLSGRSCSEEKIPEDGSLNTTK

`COc1ccc2nc(C)cc(-c3cnc4cc(-c5ccc(C6CCN(C)CC6)cc5)ccn34)c2c1` [Compound 95]: the Ki in [1] was 97.8 nM; in data set [2], 134 nM; in data set [3] it was 9.3 nM; in [6], < 5.1 nM; in [7], 831 nM; in [9], 3260 nM. Also, the results for the inhibitory constant (Ki) in data set [11] and in [12] were 822 nM and 292 nM, respectively. This compound also had an IC50 in [4] of 26.5 nM. For the same compound, the CLint scaled came out at 48.9 mL/min/kg in data set [5] (read-out: Intrinsic clearance mCLHEP), 107 mL/min/kg in data set [5] (read-out: Intrinsic clearance mCLINT), 13.3 mL/min/kg in data set [10] (read-out: Intrinsic clearance hCLHEP) and 36.6 mL/min/kg in data set [10] (read-out: Intrinsic clearance hCLINT). The fraction unbound amounted to 0.006 in [8] and 0.015 in data set [13].

What is called Ki is a dissociation constant, usually derived from enzyme kinetics or from competition with a known ligand. As usually defined, the IC50 is the concentration at which inhibition is half-maximal. Higher therefore signals a need for much substance.
